In BigSolDB 2.1:

Nc1ccc(S(=O)(=O)Nc2ncccn2)cc1
solubility (mole fraction)
Conditions	in acetone	in chloroform	in ethanol	in isopropanol	in methanol	in n-propanol
294.15 K	5.96e-05	5.47e-06	3.8e-05	6.53e-05	0.000265	9.66e-05
298.15 K	7.34e-05	9.26e-06	4.8e-05	8.18e-05	0.000283	0.000124
303.15 K	9.17e-05	1.54e-05	6.01e-05	0.000103	0.000311	0.000164
308.15 K	0.000106	2.15e-05	7e-05	0.000123	0.000343	0.000208
313.15 K	0.000115	2.57e-05	7.56e-05	0.000134	0.000377	0.000245
318.15 K	0.00012	2.71e-05	7.68e-05	0.000143	0.000409	0.000279
